Test results taken from paper PMC7114507 (Virus Research, 2010).

Molecular target: T1, recHE4 (Isavirus salaris, UniProt Q9J0Y0)
T1 sequence (Q9J0Y0 17-353): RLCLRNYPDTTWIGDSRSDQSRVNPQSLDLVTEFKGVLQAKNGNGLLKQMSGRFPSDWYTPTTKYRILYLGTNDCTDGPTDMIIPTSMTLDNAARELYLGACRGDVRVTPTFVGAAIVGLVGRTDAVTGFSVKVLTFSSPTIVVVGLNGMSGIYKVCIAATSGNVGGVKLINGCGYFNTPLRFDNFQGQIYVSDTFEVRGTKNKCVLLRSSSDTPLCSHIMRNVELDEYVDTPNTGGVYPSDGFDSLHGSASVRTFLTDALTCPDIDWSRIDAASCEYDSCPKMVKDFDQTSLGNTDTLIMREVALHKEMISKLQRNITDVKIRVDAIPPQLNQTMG
Assay: fluorescence acetylesterase assay, recHE on cobalt beads
Type: biochemical
Conditions: 0-500 uM substrate, PBS pH 7.4, RT; bead-bound

## CC(=O)Oc1ccc2c(C)cc(=O)oc2c1 [4-methylumbelliferyl acetate]
  fluorescence acetylesterase assay, recHE on cobalt beads: recHE4 and recHE7 proteins exhibit similar acetylesterase activities with all substrate concentrations tested
